Data: patent US20100130725A1, “METHODS FOR CHARACTERIZING MOLECULES” (priority 2008, published 2010)

Columns and labels:
quiescent A431 cells = experiment: Epic RWG biosensor DMR assay, agonist mode (primary profile), quiescent A431 cells; format: cell-based, human
Experimental: All cell lines were obtained from American Type Cell Culture (Manassas, Va.). The cell culture medium was as follows: Dulbecco's modified Eagle's medium (DMEM) supplemented with 10% fetal bovine serum (FBS), 4.5 g/liter glucose, 2 mM glutamine, and antibiotics for human epidermoid carcinoma A431 and human lung carcinoma A549.
Cells were typically grown using ˜1 to 2×10^4 cells per well at passage 3 to 15 suspended in 50 μl of the corresponding culture medium in the biosensor microplate, and were cultured at 37° C. under air/5% CO2 for ˜1 day. Except for A431, which was subject to ˜20 hr starvation through continuous culture in the serum-free DMEM, the other cell types were directly assayed without starvation. The confluency for all cells at the time of assays was ˜95% to 100%.
Epic® wavelength interrogation system (Corning Inc., Corning, N.Y.) was used for whole cell sensing. This system consists of a temperature-control unit, an optical detection unit, and an on-board liquid handling unit with robotics. The detection unit is centered on integrated fiber optics, and enables kinetic measures of cellular responses with a time interval of ˜15 sec.
The RWG biosensor is capable of detecting minute changes in local index of refraction near the sensor surface. Since the local index of refraction within a cell is a function of density and its distribution of biomass (e.g., proteins, molecular complexes), the biosensor exploits its evanescent wave to non-invasively detect ligand-induced dynamic mass redistribution in native cells. […]
For biosensor cellular assays, molecule solutions were made by diluting the stored concentrated solutions with the HBSS (1× Hanks balanced salt solution, plus 20 mM Hepes, pH 7.1), and transferred into a 384 well polypropylene molecule storage plate to prepare a molecule source plate. […] Both the cell assay plate and the molecule and marker source plate(s) were then incubated in the hotel of the reader system. After ˜1 hr of incubation the baseline wavelengths of all biosensors in the cell assay microplate were recorded and normalized to zero. […]

A431 cells = experiment: EGF-induced DMR signal in partially quiescent A431 cells (20 hr in 0.1% fetal bovine serum); format: cell-based, human; conditions: partially quiescent A431, 20 hour starvation in 0.1% fetal bovine serum
From the text: EGFR belongs to the family of receptor tyrosine kinases. EGF binds to and stimulates the intrinsic protein-tyrosine kinase activity of EGFR, initiating a signal transduction cascade, principally involving the MAPK, […] and JNK pathways. Upon EGF stimulation, there are many events leading to mass redistribution in A431 cells—a cell line endogenously over-expressing EGFRs. It is known that EGFR signaling depends on cellular status. As a result, the EGF-induced DMR signals are also dependent on the cellular status. In quiescent cells obtained through 20 hr culturing in 0.1% fetal bovine serum, EGF stimulation leads to a DMR signal with three distinct and sequential phases: (i) a positive phase with increased signal (P-DMR), (ii) a transition phase, and (iii) a decay phase (N-DMR). […]
An Epic® cellular assay was conducted on partially quiescent A431 cells obtained through 1 day culture with serum containing medium followed by 20 hour starvation culturing in a medium containing 0.1% fetal bovine serum. […] Chemical biology and cell biology studies have shown that this EGF-induced DMR signal is primarily linked to the Ras/MAPK pathway, which proceeds through MEK and leads to cell detachment (Fang, Y., et al., (2005) “Characteristics of dynamic mass redistribution of EGF receptor signaling in living cells measured with label free optical biosensors”. Anal. Chem., 77, 5720-5725).

## epidermal growth factor [EGF]
Quiescent A431 cells; fully quiescent A431 cells
  EC80 for triggering the DMR signal: ~32 nM
Quiescent A431 cells; fully quiescent A431 cells, EGF 32 nM, average of 32 replicates
  DMR signal triggered by EGF: distinct and robust DMR signal
Quiescent A431 cells; quiescent A431 cells, data not shown
  DMR response as a function of EGF dose: dose-dependent response
A431 cells
  DMR signal triggered by EGF: DMR signal with two distinct and sequential phases
